Experimental data published in US3974157A, “1-(Amino-alkyl)-2-aryl-cyclohexane alcohols and esters” (Pennwalt Corporation, priority 1975, dated 1976).
Where a name gives a salt, the structure may show the parent alone.

How the values were obtained:
Format in all cases: in vivo
[1] = phenylbenzoquinone (PBQ) writhing method (analgesia in mice, Sigmund et al); settings: for ED50: Mus musculus
Description: (§1) Analgesia was assessed in mice utilizing the hot plate method of Eddy and Leimbach, Journal Pharmacology Expt. Therap., 107, 385, 1953, and/or the phenylbenzoquinone writhing method described by Sigmund et al, Proc. Soc. Exptl. Biol. Med., 95, 729, 1957. The hot plate method is based upon the delay in reaction time, following administration of an active analgesic when animals are placed on a heated […] plate maintained at constant temperature. Thus, the numbers of mice showing elevation of response times over control values after administration of various doses of an unknown compound are used to determine the median effective dose (ED50), which is that dose affecting 50% of the animals. The writhing method is based upon inhibition by an analgesic of the response which occurs when the chemical agent phenylbenzoquinone is injected intraperitoneally. This response is characterized by a twisting or stretching of the body and is referred to as writhing. Following administration of an analgesic or unknown compound into mice, the numbers of animals not responding to the phenylbenzoquinone challenge by writhing are determined.

[2] = test system: arrhythmia produced in dogs or cats by ouabain; assay: anti-arrhythmic activity: preventing or reversing the arrhythmia produced by ouabain; settings: for Arrhythmia Reversal Time: ouabain arrhythmia
Description: Anti-arrhythmic activity was determined by measuring the effect of the test compound in preventing or reversing the arrhythmia produced in dogs or cats by ouabain. In the test method, the animal was pretreated with 10 mg/kg (i.v.) of the test compound. The animal was then given 15 micrograms/kg of ouabain (i.v.) followed by doses of 10 micrograms/kg of ouabain at 15-minute intervals (the last dose of ouabain could be less than 10 micrograms/kg) until an arrhythmia was produced which lasted for 10 minutes. The animal was then given 5 mg/kg (i.v.) of test compound. If the arrhythmia was not reversed after 3 minutes, 1 mg/kg of xylocaine was given (i.v.) to reverse the arrhythmia. If the arrhythmia was reversed within 3 minutes by the test compound, the period of time during which the test compound effected reversal was measured (Arrythmia Reversal Time).

[3] = hot plate method (analgesia in mice, Eddy and Leimbach); settings: Mus musculus
Description: as §1

[4] = test system: arrhythmia produced in dogs or cats by ouabain; assay: anti-arrhythmic activity: preventing or reversing the arrhythmia produced by ouabain; settings: amount compound 4 mg/kg
[5] = po, mice, phenylbenzoquinone writhing, oral route, read-out: Analgesic Tests ED50 PBQ P.O.
[6] = sc, mice, phenylbenzoquinone writhing, subcutaneous route, read-out: Analgesic Tests ED50 PBQ S.C.
[7] = dogs or cats, amount compound 5 mg/kg
[8] = ouabain given i.v. until an arrhythmia lasting 10 minutes, after 10 mg/kg i.v. pretreatment with test compound
[9] = ip, mice, intraperitoneal route, read-out: Analgesic Tests ED50 Hot Plate I.P.
[10] = mice, oral route, read-out: Analgesic Tests ED50 Hot Plate P.O.
[11] = mice, phenylbenzoquinone writhing, oral route
[12] = mice, phenylbenzoquinone writhing, subcutaneous route

SMILES | ED50 [1, 5] [mg/kg] | ED50 [1, 6] [mg/kg] | also measured
CC(N)C1(O)CCCCC1c1ccccc1.Cl (stereo not drawn) [Example XXIII, 1-(1-Aminoethyl)-2-phenylcyclohexanol hydrochloride] | > 100 | > 30 | Arrhythmia Reversal Time [2, 7]: 5 min; Amount Ouabain [2, 8]: 95 µg/kg
COc1ccc(C2CCCCC2(O)C(C)CN(C)C)cc1.Cl (stereo not drawn) [Example XVII, 1-(2-Dimethylamino-1-methylethyl)-2-(p-methoxyphenyl)-cyclohexanol hydrochloride] | > 100 | > 30 | Arrhythmia Reversal Time [2, 7]: 30 min; Amount Ouabain [2, 8]: 80 µg/kg
CNC(C)C1(O)CCCCC1c1ccccc1.Cl (stereo not drawn) [XXIV, 1-(1-Methylaminoethyl)-2-phenylcyclohexanol hydrochloride] | > 100 | > 30 | prevention of arrhythmia by pretreatment ([2]; dogs or cats, 10 mg/kg pretreatment, then ouabain): prevented arrhythmia; Amount Ouabain [2, 8]: 140 µg/kg
CC(=O)OC1(C(C)N(C)C)CCCCC1c1ccccc1 (stereo not drawn) [XXVIII, 1-(1-Dimethylaminoethyl)-2-phenylcyclohexyl acetate cyclohexylsulfamate] | > 30 | > 10 | –
CC(=O)OC1(C(C)CN2CCN(c3ccccc3)CC2)CCCCC1c1ccccc1.Cl (stereo not drawn) [Example XXI, 1-(1-Methyl-2-[4-phenyl-1-piperazinyl]ethyl)-2-phenylcyclohexyl acetate hydrochloride] | 5.9 | > 100 | –
CNCC(C)C1(O)CCCCC1c1ccccc1.Cl (stereo not drawn) [Example XXVI, 1-(2-Methylamino-1-methylethyl)-2-phenylcyclohexanol hydrochloride] | > 30 | > 10 | –
CC(N(C)C)C1(O)CCCCC1c1ccccc1.Cl (stereo not drawn) [Example XXVII, 1-(1-Dimethylaminoethyl)-2-phenylcyclohexanol hydrochloride] | > 100 | > 100 | –
COc1ccc(C2CCCCC2(O)C(C)CN(C)C)cc1OC (stereo not drawn) [XXXII, 2-(3,4-Dimethoxyphenyl)-1-(2-dimethylamino-1-methylethyl)cyclohexanol p-toluenesulfonate] | > 100 | ~30 | –
CC(=O)OC1(C(C)CN2CCOCC2)CCCCC1c1ccccc1.Cl (stereo not drawn) [XIX, 1-(1-Methyl-2-morpholinoethyl)2-phenylcyclohexyl acetate hydrochloride] | 40 | 56.2 | –
C=CCN(C)CC(C)C1(OC(C)=O)CCCCC1c1ccccc1 (stereo not drawn) [XIII, 1-(2-Allylmethylamino-1-methylethyl)-2-phenylcyclohexyl acetate] | ~100 | ~30 | –
CCOC(=O)C1(c2ccccc2)CCN(C)CC1 [Meperidine, reference compound] | 18 | 1.7 | ED50 [3, 9]: 5.8 mg/kg; ED50 [3, 10]: 81 mg/kg
C=CCN(CC=C)CC(C)C1(OC(C)=O)CCCCC1c1ccccc1 (stereo not drawn) [Example XVI, 1-(2-Diallylamino-1-methylethyl)-2-phenylcyclohexyl acetate] | > 30 | > 3 | –
CC(=O)OC1(C(C)CN(C)C)CCCCC1c1ccc(O)cc1.Cl (stereo not drawn) [XXXI, 1-(2-Dimethylamino-1-methylethyl)-2-(p-hydroxyphenyl)cyclohexyl acetate hydrochloride] | > 100 | > 100 | –
CC(CN(C)C)C1(O)CCCCC1c1ccccc1 (stereo not drawn) [Example XI, 1-(2-Dimethylamino-1-methylethyl)-2-phenylcyclohexanol-p-toluenesulfonate] | 56 | – | ED50 [3, 9]: 32 mg/kg; ED50 [3, 10]: 56 mg/kg; Amount Ouabain [2, 8]: 88 µg/kg; Arrhythmia Reversal Time [4]: 5 min
CC(=O)OC1(C(C)CN2CCCC2)CCCCC1c1ccccc1.O=S(=O)(O)O (stereo not drawn) [Example XXII, 1-(1-Methyl-2-pyrrolidinoethyl)-2-phenylcyclohexyl acetate sulfate] | > 30 | ~10 | –
CC(CN(C)C)C1(O)CCCCC1c1ccc(O)cc1 (stereo not drawn) [Example XXX, 1-(2-Dimethylamino-1-methylethyl)-2-(p-hydroxyphenyl)-cyclohexanol] | > 100 | > 30 | –
CC(CN1CCCC1)C1(O)CCCCC1c1ccccc1 (stereo not drawn) [Example III, 1-(1-Methyl-2-pyrrolidinoethyl)-2-phenylcyclohexanol] | > 100 | ~30 | Arrhythmia Reversal Time [2, 7]: 5 min; Amount Ouabain [2, 8]: 100 µg/kg
COc1ccc(C2CCCCC2(OC(C)=O)C(C)CN(C)C)cc1 (stereo not drawn) [Example XXV, 1-(2-Dimethylamino-1-methylethyl)-2-(p-methoxyphenyl)-cyclohexylacetate hydrochloride] | > 100 | > 30 | –
COc1ccc(C2CCCCC2(OC(C)=O)C(C)CN(C)C)cc1OC.Cl (stereo not drawn) [XXXIII, 2-(3,4-Dimethoxyphenyl)-1-(2-dimethylamino-1-methylethyl)cyclohexyl acetate hydrochloride] | > 100 | > 30 | Arrhythmia Reversal Time [2, 7]: 30 min; Amount Ouabain [2, 8]: 70 µg/kg
CC(=O)OC1(C(C)CN(C)C)CCCCC1c1ccccc1 (single isomer, unassigned; (-)) [Example IX, (-)-1-(2-Dimethylamino-1-methylethyl)-2-phenylcyclohexyl acetate] | – | – | Analgesic Tests ED50 PBQ P.O. [1, 11]: 16 mg/kg; Analgesic Tests ED50 PBQ S.C. [1, 12]: 2.15 mg/kg
CC(=O)OC1(C(C)CN2CCCCC2)CCCCC1c1ccccc1.Cl (stereo not drawn) [XII, 1-(1-Methyl-2-piperidinoethyl)-2-phenylcyclohexyl acetate hydrochloride] | ~60 | ~30 | –
CC(=O)OC1(CCN(C)C)CCCCC1c1ccccc1 (stereo not drawn) [Example XV, 1-(2-Dimethylaminoethyl)-2-phenylcyclohexyl acetate cyclohexylsulfamate] | > 30 | > 10 | –
CCC(=O)OC1(C(C)CN(C)C)CCCCC1c1ccccc1 (single isomer, unassigned) [Example I (a), 1-(2-Dimethylamino-1-methylethyl)-2-phenylcyclohexyl propionate maleate (Major Isomer)] | 100 | – | ED50 [3, 9]: > 40 mg/kg; ED50 [3, 10]: > 100 mg/kg
CN1CC[C@]23c4c5ccc(O)c4O[C@H]2[C@@H](O)C=C[C@H]3[C@H]1C5 [Morphine, reference compound] | – | – | ED50 ([1]; po, read-out: Analgesic Tests ED50 PBQ P.O.): 2.6 mg/kg; ED50 ([1]; sc, read-out: Analgesic Tests ED50 PBQ S.C.): 0.5 mg/kg; ED50 ([3]; ip, read-out: Analgesic Tests ED50 Hot Plate I.P.): 1.8 mg/kg; ED50 ([3]; po, read-out: Analgesic Tests ED50 Hot Plate P.O.): 18 mg/kg
CCN(CC)CC(=O)Nc1c(C)cccc1C [Lidocaine, reference compound] | – | – | Amount Ouabain ([2]; control (Lidocaine) line): 60 to 130 µg/kg; Arrhythmia Reversal Time ([2]; dogs or cats, control, amount compound 1-2 mg/kg): 1 to 3 min
CN(C)CCC1(O)CCCCC1c1ccccc1 (stereo not drawn) [Example XIV, 1-(2-Dimethylaminoethyl)-2-phenylcyclohexanol] | > 100 | ~30 | –
CC(=O)OC1(C(C)CN(C)C)CCCCC1c1ccccc1 (single isomer, unassigned) [Example I (c), 1-(2-Dimethylamino-1-methylethyl)-2-phenylcyclohexyl acetate maleate (Major Isomer)] | – | – | Analgesic Tests ED50 PBQ P.O. [1, 11]: 20 mg/kg; Analgesic Tests ED50 PBQ S.C. [1, 12]: 3.8 mg/kg; ED50 [3, 9]: 10 mg/kg; ED50 [3, 10]: 40 mg/kg; Amount Ouabain [2, 8]: 85 µg/kg; Arrhythmia Reversal Time [4]: 30 min
CC(=O)OC1(C(C)CN(C)C)CCCCC1c1ccccc1 (single isomer, unassigned; (+)) [Example X, (+)-1-(2-Dimethylamino-1-methylethyl)-2-phenylcyclohexyl acetate] | – | – | Analgesic Tests ED50 PBQ P.O. [1, 11]: > 100 mg/kg; Analgesic Tests ED50 PBQ S.C. [1, 12]: 16.5 mg/kg
